From paper PMC2717937 (Journal of Experimental & Clinical Cancer Research : CR, 2009)
Structures can show the parent of a compound that is named as a salt. Where two headings read alike, the source gives them in different places. Each block holds one compound with its values, some of them ahead of it.

Columns and labels:
[1] = imatinib 50 mg/kg oral, vehicle 30 min before
[2] = vehicle 30 min before, listed as Imatinib alone
[3] = in vivo; conditions: Balb/C, mouse, brain, po, 50 mg/kg
[4] = oral; cited from earlier work
[5] = in vivo; conditions: Balb/C, mouse, plasma, po, 50 mg/kg
[6] = in vivo; conditions: Balb/C, mouse, liver, po, 50 mg/kg
[7] = imatinib 50 mg/kg oral, vehicle 30 min before; remark: listed apart in the source
[8] = tested on: drug efflux; set-up: method as in PMID 11212278; conditions: cited from earlier work
[9] = tested on: ABCB1 in CD56+ lymphocytes; conditions: healthy volunteers, tariquidar 2 mg/kg i.v. or ≥ 200 mg orally; cited from earlier work
[10] = elacridar with imatinib 12.5 mg/kg vs imatinib alone; cited from earlier work
[11] = listed as imatinib plus vehicle

Liver AUC0–24 [1]: 68,330.8 hr*ng/g
Liver AUC0–24 (text) [1]: 68,331 hr*ng/mL
Liver Cmax ([1]; listed as Imatinib alone): 26,279.7 ng/g
Liver Cmax [1, 11]: 26,280 ng/g
Plasma Cmax ([2]; imatinib 50 mg/kg oral gavage, mean, n = 3 per time point): 5,710.5 ng/mL
Plasma AUC0–24 ([2]; imatinib 50 mg/kg oral): 12,167.5 hr*ng/mL
Tmax [3]: 120 min
Tmax [5]: 10.2 min
AUC(0-t) ([5]; Plasma AUC0–24, imatinib 50 mg/kg oral, vehicle 30 min before): 12200 ng·h/mL
Cmax ([5]; Plasma Cmax, imatinib 50 mg/kg oral gavage, vehicle 30 min before, mean, n = 3 per time point): 5710 ng/mL
Tmax [6]: 15 min
Brain AUC0–4 [7]: 574.23 ng·h/g
Brain Cmax (corrected for brain vascular space) ([7]; listed as Imatinib alone): 194.7 ng/g
Brain Cmax (corrected for brain vascular space) [7, 11]: 195 ng/g
SMILES: Cc1ccc(NC(=O)c2ccc(CN3CCN(C)CC3)cc2)cc1Nc1nccc(-c2cccnc2)n1 [Imatinib, Imatinib mesylate]
Bioavailability [4]: approximately 98%

SMILES: COc1cc2c(cc1OC)CN(CCc1ccc(NC(=O)c3cc(OC)c(OC)cc3NC(=O)c3cnc4ccccc4c3)cc1)CC2 [Tariquidar]
Persistence of inhibitory effect on drug efflux in vitro [8]: persists for over two hours
Duration of 100% inhibition of ABCB1 in CD56+ lymphocytes [9]: over 24 hours
Inhibition of ABCB1 in CD56+ lymphocytes [9]: 100%

SMILES: COc1cc2c(cc1OC)CN(CCc1ccc(NC(=O)c3cccc4c(=O)c5cccc(OC)c5[nH]c34)cc1)CC2 [elacridar]
Fold increase in brain-to-plasma concentration ratio of imatinib [10]: 9.3 fold
